# Source: ChEMBL document CHEMBL4376871, “Synthesis and anti-cancer activity studies of dammarane-type triterpenoid derivatives” (Eur J Med Chem, 2020)
# Active and inactive are the calls of the source. The calls are words filed in the database; no cut-off is given here.
# Experiments:
# [1] = Cytotoxicity against human IOSE-144 cells incubated for 48 hrs and measured after 4 hrs by MTT assay; type: cell-based
# [2] = test system: SGC-7901; test: Antiproliferative activity against human SGC7901 cells incubated for 48 hrs and measured after 4 hrs by MTT assay; type: functional, cell-based
# [3] = test system: MCF7; test: Antiproliferative activity against human MCF7 cells incubated for 48 hrs and measured after 4 hrs by MTT assay; type: functional, cell-based
# [4] = test system: MGC-803; test: Antiproliferative activity against human MGC803 cells incubated for 48 hrs and measured after 4 hrs by MTT assay; type: functional, cell-based
# [5] = test system: A549; test: Induction of apoptosis in human A549 cells assessed as nuclear shrinkage at 10 to 20 uM measured after 12 hrs by DAPI staining based fluorescence microscopic analysis; type: functional, cell-based
# [6] = test system: A549; test: Induction of apoptosis in human A549 cells assessed as appearance of fragmented apoptotic bodies at 10 to 20 uM measured after 12 hrs by DAPI staining based fluorescence microscopic analysis; type: functional, cell-based
# [7] = test system: A549; test: Antiproliferative activity against human A549 cells incubated for 48 hrs and measured after 4 hrs by MTT assay; type: functional, cell-based
# [8] = test system: PC-3; test: Antiproliferative activity against human PC3 cells incubated for 48 hrs and measured after 4 hrs by MTT assay; type: functional, cell-based
# [9] = test system: A549; test: Induction of apoptosis in human A549 cells assessed as nuclear condensation at 10 to 20 uM measured after 12 hrs by DAPI staining based fluorescence microscopic analysis; type: functional, cell-based
# [10] = test system: PC-3; test: Potency index, ratio of IC50 for AD-2 to IC50 for test compound for antiproliferative activity against human PC3 incubated for 48 hrs and measured after 4 hrs by MTT assay; type: functional
# [11] = test system: A549; test: Potency index, ratio of IC50 for AD-2 to IC50 for test compound for antiproliferative activity against human A549 incubated for 48 hrs and measured after 4 hrs by MTT assay; type: functional
# [12] = test system: MCF7; test: Potency index, ratio of IC50 for AD-2 to IC50 for test compound for antiproliferative activity against human MCF7 incubated for 48 hrs and measured after 4 hrs by MTT assay; type: functional
# [13] = test system: MGC-803; test: Potency index, ratio of IC50 for AD-2 to IC50 for test compound for antiproliferative activity against human MGC803 incubated for 48 hrs and measured after 4 hrs by MTT assay; type: functional
# [14] = test system: SGC-7901; test: Potency index, ratio of IC50 for AD-2 to IC50 for test compound for antiproliferative activity against human SGC7901 incubated for 48 hrs and measured after 4 hrs by MTT assay; type: functional
# [15] = test system: A549; test: Induction of apoptosis in human A549 cells assessed as early apoptotic cells at 10 uM after 12 hrs by Annexin V-FITC/propidium iodide staining-based flow cytometric analysis (reference value: 0.9%); type: functional
# [16] = test system: A549; test: Induction of ROS generation in human A549 cells assessed as intracellular ROS level at 10 to 15 uM after 30 mins in presence of NAC by DCFH-DA staining-based flow cytometric analysis; type: functional, cell-based
# [17] = test system: A549; test: Induction of apoptosis in human A549 cells assessed as upregulation of Bax protein expression at 5 to 20 uM incubated for 12 hrs by Western blot analysis; type: functional, cell-based
# [18] = test system: A549; test: Induction of apoptosis in human A549 cells assessed as cell shrinkage at 10 to 20 uM by microscopic analysis; type: functional, cell-based
# [19] = test system: A549; test: Cell cycle arrest in human A549 cells assessed as decrease in accumulation of cells at G0/G1 phase at 5 to 10 uM after 24 hrs by propidium iodide staining-based flow cytometric analysis; type: functional
# [20] = test system: A549; test: Induction of apoptosis in human A549 cells assessed as upregulation of Cyt c protein expression at 5 to 20 uM incubated for 12 hrs by Western blot analysis; type: functional, cell-based
# [21] = test system: A549; test: Induction of apoptosis in human A549 cells assessed as decrease in caspase-3 protein expression level at 5 to 20 uM incubated for 12 hrs by Western blot analysis; type: functional, cell-based
# [22] = test system: A549; test: Cell cycle arrest in human A549 cells assessed as increase in expression of p21 at 5 to 20 uM measured after 12 hrs by Western blot analysis; type: functional, cell-based
# [23] = test system: A549; test: Induction of apoptosis in human A549 cells assessed as appearance of apoptotic bodies at 10 to 20 uM by microscopic analysis; type: functional, cell-based
# [24] = test system: A549; test: Induction of apoptosis in human A549 cells assessed as increase in cleaved caspase-9 protein expression level at 5 to 20 uM incubated for 12 hrs by Western blot analysis; type: functional, cell-based
# [25] = test system: A549; test: Induction of apoptosis in human A549 cells measured after 12 hrs by Annexin V-FITC/propidium iodide staining-based flow cytometric analysis; type: functional, cell-based
# [26] = test system: A549; test: Suppression of mitochondrial membrane potential in human A549 cells assessed as increase in green fluorescence at 10 uM after 12 hrs by JC-1 staining based flow cytometry (reference value: 0.4%); type: functional
# [27] = test system: A549; test: Induction of apoptosis in human A549 cells assessed as decrease in Bcl2 protein expression level at 5 to 20 uM incubated for 12 hrs by Western blot analysis; type: functional, cell-based
# [28] = test system: A549; test: Induction of apoptosis in human A549 cells assessed as increase in cleaved caspase-3 protein expression level at 5 to 20 uM incubated for 12 hrs by Western blot analysis; type: functional, cell-based
# [29] = test system: A549; test: Cell cycle arrest in human A549 cells assessed as increase in expression of p53 at 5 to 20 uM measured after 12 hrs by Western blot analysis; type: functional, cell-based
# [30] = test system: A549; test: Suppression of mitochondrial membrane potential in human A549 cells assessed as increase in green fluorescence at 15 uM after 12 hrs by JC-1 staining based flow cytometry (reference value: 0.4%); type: functional
# [31] = test system: A549; test: Induction of apoptosis in human A549 cells assessed as decrease in caspase-9 protein expression level at 5 to 20 uM incubated for 12 hrs by Western blot analysis; type: functional, cell-based
# [32] = test system: A549; test: Induction of ROS generation in human A549 cells assessed as intracellular ROS level at 10 to 15 uM after 30 mins by DCFH-DA staining-based flow cytometric analysis; type: functional, cell-based
# [33] = test system: A549; test: Cell cycle arrest in human A549 cells assessed as decrease in accumulation of cells at G2/M phase at 5 to 10 uM after 24 hrs by propidium iodide staining-based flow cytometric analysis; type: functional
# [34] = test system: A549; test: Induction of apoptosis in human A549 cells at 10 to 15 uM after 12 hrs by flow cytometric analysis; type: functional, cell-based
# [35] = test system: A549; test: Induction of apoptosis in human A549 cells assessed as early apoptotic cells at 15 uM after 12 hrs by Annexin V-FITC/propidium iodide staining-based flow cytometric analysis (reference value: 0.9%); type: functional
# [36] = test system: A549; test: Induction of apoptosis in human A549 cells at 10 to 15 uM in presence of NAC after 12 hrs by flow cytometric analysis; type: functional, cell-based
# [37] = test system: A549; test: Cell cycle arrest in human A549 cells assessed as increase in accumulation of cells at sub G0/G1 phase after 24 hrs by propidium iodide staining-based flow cytometric analysis; type: functional
# [38] = test system: A549; test: Induction of apoptosis in human A549 cells assessed as decrease in PARP protein expression level at 5 to 20 uM incubated for 12 hrs by Western blot analysis; type: functional, cell-based
# [39] = test system: A549; test: Induction of apoptosis in human A549 cells assessed as increase in cleaved PARP protein expression level at 5 to 20 uM incubated for 12 hrs by Western blot analysis; type: functional, cell-based
# [40] = test system: A549; test: Cell cycle arrest in human A549 cells assessed as increase in accumulation of cells at S phase at 5 to 10 uM after 24 hrs by propidium iodide staining-based flow cytometric analysis; type: functional
structure (smiles),measurement,setting,value
CC(C)(O)CCC[C@@](C)(O)[C@H]1CC[C@]2(C)[C@@H]1[C@H](O)C[C@@H]1[C@@]3(C)CC[C@H](O)C(C)(C)[C@@H]3CC[C@]12C,IC50,[1],> 100 µM
same,IC50,[2],34 µM
same,IC50,[3],28.5 µM
same,IC50,[4],69.8 µM
same,Activity,[5],inactive
same,Activity,[6],inactive
same,IC50,[7],22.7 µM
same,IC50,[8],45.7 µM
same,Activity,[9],inactive
CC(C)(O)CCC[C@@](C)(O)[C@H]1CC[C@]2(C)[C@@H]1[C@H](O)C[C@@H]1[C@@]3(C)C/C(=C\c4ccc(F)cc4F)C(=O)C(C)(C)[C@@H]3CC[C@]12C,IC50,[1],> 100 µM
same,IC50,[2],11.2 µM
same,Ratio IC50,[10],3 - 8
same,IC50,[3],8.32 µM
same,Ratio IC50,[11],3 - 8
same,Ratio IC50,[12],3 - 8
same,IC50,[4],9.32 µM
same,Ratio IC50,[13],3 - 8
same,IC50,[7],12.6 µM
same,Ratio IC50,[14],3 - 8
same,IC50,[8],13.1 µM
CC(C)(O)CCC[C@@](C)(O)[C@H]1CC[C@]2(C)[C@@H]1[C@H](O)C[C@@H]1[C@@]3(C)C/C(=C\c4cccc(Br)c4)[C@H](O)C(C)(C)[C@@H]3CC[C@]12C,IC50,[1],> 100 µM
same,IC50,[2],> 100 µM
same,IC50,[3],> 100 µM
same,IC50,[4],18.8 µM
same,IC50,[7],> 100 µM
same,IC50,[8],> 100 µM
CC(C)(O)CCC[C@@](C)(O)[C@H]1CC[C@]2(C)[C@@H]1[C@H](O)C[C@@H]1[C@@]3(C)CC[C@H](NC(=O)C4CCCNC4)C(C)(C)[C@@H]3CC[C@]12C (some centres undefined),IC50,[1],> 100 µM
same,IC50,[2],29.9 µM
same,IC50,[3],18.5 µM
same,IC50,[4],20.6 µM
same,IC50,[7],11.6 µM
same,IC50,[8],30.8 µM
CC(C)(O)CCC[C@@](C)(O)[C@H]1CC[C@]2(C)[C@@H]1[C@H](O)C[C@@H]1[C@@]3(C)CC[C@H](OC(=O)C4CCNCC4)C(C)(C)[C@@H]3CC[C@]12C,IC50,[1],> 100 µM
same,Activity,[15],27%
same,Activity,[16],inactive
same,Activity,[17],Active
same,IC50,[2],7.11 µM
same,Activity,[18],Active
same,Activity,[19],Active
same,Ratio IC50,[10],5 - 28
same,IC50,[3],1.27 µM
same,Ratio IC50,[11],5 - 28
same,Activity,[20],Active
same,Ratio IC50,[12],5 - 28
same,Activity,[21],Active
same,IC50,[4],6.51 µM
same,Activity,[22],Active
same,Activity,[23],Active
same,Activity,[5],Active
same,Activity,[24],Active
same,Activity,[6],Active
same,Activity,[25],Dose-dependent effect
same,Activity,[26],7.5%
same,Ratio IC50,[13],5 - 28
same,Activity,[27],Active
same,Activity,[28],Active
same,IC50,[7],1.07 µM
same,Ratio IC50,[14],5 - 28
same,Activity,[29],Active
same,Activity,[30],27.6%
same,IC50,[8],5.44 µM
same,Activity,[31],Active
same,Activity,[32],Active
same,Activity,[33],Active
same,Activity,[34],Active
same,Activity,[35],50%
same,Activity,[9],Active
same,Activity,[36],inactive
same,Activity,[37],Active
same,Activity,[38],Active
same,Activity,[39],Active
same,Activity,[40],Active
CC(C)(O)CCC[C@@](C)(O)[C@H]1CC[C@]2(C)[C@@H]1[C@H](O)C[C@@H]1[C@@]3(C)C/C(=C\c4ccc([N+](=O)[O-])cc4)[C@H](O)C(C)(C)[C@@H]3CC[C@]12C,IC50,[1],> 100 µM
same,IC50,[2],47.2 µM
same,IC50,[3],49.4 µM
same,IC50,[4],23.2 µM
same,IC50,[7],34.2 µM
same,IC50,[8],58.1 µM
CC(C)(O)CCC[C@@](C)(O)[C@H]1CC[C@]2(C)[C@@H]1[C@H](O)C[C@@H]1[C@@]3(C)CC[C@H](NC(=O)C4CCNCC4)C(C)(C)[C@@H]3CC[C@]12C,IC50,[1],> 100 µM
same,IC50,[2],32.4 µM
same,IC50,[3],25.2 µM
same,IC50,[4],25.5 µM
same,IC50,[7],20.3 µM
same,IC50,[8],34.1 µM
